Patent US9388147B2 (Receptos, Inc., priority 2009, dated 2016)
Like-named read-outs stand apart in the source and are kept apart here.

Key:
[1] = target: S1P1/EDG1 (Homo sapiens, UniProt P21453); assay: S1P1 CRE-bla CHOK1 reporter assay, inhibition of Forskolin induced cAMP; type: cell-based
Procedure, shortened: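 Read-out is a FRET β-lactamase substrate (2 h, room temperature) after 4 h, 37 °C compound treatment under 2 μM Forskolin in stable S1P1-transfected CRE-bla CHO-K1 cells. Ten-point curves; non-linear regression gives EC50 for inhibition of Forskolin-stimulated cAMP.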

[2] = target: T1, S1P3 (Homo sapiens, UniProt Q99500); assay: Specificity over other S1P receptors: S1P3-Gα15 NFAT-bla HEK293T reporter assay; type: cell-based; details: without Forskolin, read-out: S1P3 agonist value (EC50)
T1 construct: host or cells: NFAT-bla HEK293T
T1 sequence (Q99500 whole entry): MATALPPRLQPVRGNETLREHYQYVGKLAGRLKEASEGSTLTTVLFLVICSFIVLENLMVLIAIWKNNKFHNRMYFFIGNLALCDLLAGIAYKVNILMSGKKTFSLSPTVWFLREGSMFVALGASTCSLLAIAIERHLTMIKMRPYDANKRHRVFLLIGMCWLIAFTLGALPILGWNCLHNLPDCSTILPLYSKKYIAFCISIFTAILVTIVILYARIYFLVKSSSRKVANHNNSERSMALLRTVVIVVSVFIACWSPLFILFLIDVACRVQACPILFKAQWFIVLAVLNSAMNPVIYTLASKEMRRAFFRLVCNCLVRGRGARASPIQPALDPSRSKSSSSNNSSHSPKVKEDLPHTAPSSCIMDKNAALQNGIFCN
Procedure: (§1) Cells were seeded into 384-well black wall/clear bottom plates at 10^4 cells/well/19.5 μl assay media (DMEM-phenol free, 0.5% charcoal/dextran stripped serum, 2 mM glutamine, 0.1 mM NEAA, 1 mM Na-Pyruvate, 25 mM Hepes) and incubated for 18 hrs at 37° C. in 5% CO2. Dose response curves (10-point) were generated in 10 mM Hepes, 0.1% Pluronic F127, in the presence of Forskolin. Cells were treated with 0.5 μl compound in the presence of 2 μM Forskolin for 4 hrs at 37° C. The FRET-based β-lactamase fluorescent substrate (LiveBLAzer™-FRET B/G Loading Kit CC4-AM; Invitrogen) was prepared according to manufacturer's directions, and incubated with cells for 2 hrs at room temperature. Plates were read at Ex:410/Em:458 and Ex:410/Em:522, and the response ratio determined. Data was analyzed by non-linear regression to determine the EC50 for inhibition of Forskolin induced cAMP.
(§2) To assess compound specificity on other S1P receptors the following cell lines were used: S1P2 CRE-bla CHOK1, S1P3-Gα15 NFAT-bla HEK293T (Invitrogen), S1P4-bla TANGO U2OS (Invitrogen), S1P5-bla TANGO U2OS (Invitrogen). The same assay set up for S1P1 was used but without Forskolin. S1P4 and S1P5 assays were performed in FreeStyle Expression medium (Invitrogen). S1P5 cells were incubated for 48 hrs in prior to treatment with compound.

[3] = target: T2, S1P5 (Homo sapiens, UniProt Q9H228); assay: Specificity over other S1P receptors: S1P5-bla TANGO U2OS assay; type: cell-based; details: read-out: S1P5 agonist value (EC50)
T2 construct: Tango fusion (own knowledge: protease cleavage site plus GAL4-VP16 transcription factor at the receptor's C-terminus); host or cells: U2OS (Tango -bla)
T2 sequence (Q9H228 whole entry, the tested form may be a part): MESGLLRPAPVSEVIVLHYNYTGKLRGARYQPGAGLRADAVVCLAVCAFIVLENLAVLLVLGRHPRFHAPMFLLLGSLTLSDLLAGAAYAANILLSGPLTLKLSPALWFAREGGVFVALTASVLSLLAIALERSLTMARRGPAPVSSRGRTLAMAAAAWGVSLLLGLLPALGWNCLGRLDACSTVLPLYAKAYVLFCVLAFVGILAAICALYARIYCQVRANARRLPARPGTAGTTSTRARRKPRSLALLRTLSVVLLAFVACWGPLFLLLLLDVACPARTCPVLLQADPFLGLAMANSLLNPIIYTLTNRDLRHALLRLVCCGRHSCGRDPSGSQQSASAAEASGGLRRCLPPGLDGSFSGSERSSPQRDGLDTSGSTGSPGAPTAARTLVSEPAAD
Procedure: as §1, §2

[4] = target: T3, S1P2 (Homo sapiens, UniProt O95136); assay: Specificity over other S1P receptors: S1P2 CRE-bla CHOK1 reporter assay; type: cell-based; details: S1P2 CRE-bla CHOK1, without Forskolin; read-out: S1P2 agonist value (EC50)
T3 construct: expressed in transfected cells; host or cells: CRE-bla CHOK1
T3 sequence (O95136 whole entry, species assumed): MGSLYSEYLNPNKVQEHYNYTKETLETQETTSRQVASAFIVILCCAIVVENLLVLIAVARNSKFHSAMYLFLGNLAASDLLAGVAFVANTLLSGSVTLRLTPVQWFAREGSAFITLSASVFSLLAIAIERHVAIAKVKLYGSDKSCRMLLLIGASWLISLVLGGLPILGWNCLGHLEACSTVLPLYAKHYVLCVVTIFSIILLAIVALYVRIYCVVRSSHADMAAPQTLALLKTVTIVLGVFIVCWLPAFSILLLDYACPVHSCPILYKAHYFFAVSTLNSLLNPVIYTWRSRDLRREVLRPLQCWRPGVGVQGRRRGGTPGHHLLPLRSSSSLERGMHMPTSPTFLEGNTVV
Procedure: as §1, §2

[5] = target: T4, S1P4 (Homo sapiens, UniProt O95977); assay: Specificity over other S1P receptors: S1P4-bla TANGO U2OS assay; type: cell-based; details: read-out: S1P4 agonist value (EC50)
T4 construct: Tango fusion (own knowledge: protease cleavage site plus GAL4-VP16 transcription factor at the receptor's C-terminus); host or cells: U2OS (Tango -bla)
T4 sequence (O95977 1-384): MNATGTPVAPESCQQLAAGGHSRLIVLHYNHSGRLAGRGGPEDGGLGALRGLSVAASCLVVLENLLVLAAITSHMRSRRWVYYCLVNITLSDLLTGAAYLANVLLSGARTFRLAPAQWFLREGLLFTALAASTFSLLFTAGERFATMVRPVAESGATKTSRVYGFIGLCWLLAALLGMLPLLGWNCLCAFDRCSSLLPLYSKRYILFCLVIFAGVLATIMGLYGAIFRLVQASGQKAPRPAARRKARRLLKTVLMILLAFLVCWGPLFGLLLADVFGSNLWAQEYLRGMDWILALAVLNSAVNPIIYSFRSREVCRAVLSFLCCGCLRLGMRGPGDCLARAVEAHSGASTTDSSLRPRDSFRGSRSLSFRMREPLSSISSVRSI
Procedure: as §1, §2

[6] = system: peripheral T-cell counts; assay: Lymphopenia in rats, 3-5 day multiple dose regimen; type: in vivo, rat; details: female rats, oral, 24 h after final dose of a 3-5 day multiple dose regimen
Procedure: In rats: Female rats (Simonsen Laboratories, Gilroy Calif.) were housed in an ALAAC accredited facility and the research was approved by the facilities Institutional Animal Care and Use Committee (IACUC). The animals were acclimated to the laboratory for at least 5 days prior to initiation of experiments. Rats (n=3/compound/time-point) were dosed by oral gavage with 1 mg/kg compound formulated in a vehicle consisting of 5% DMS0/5% Tween 20 and 90% 0.1N HCL. Control rats were dosed PO with the vehicle. Whole blood was collected from isoflurane anesthetized rats via the retro-orbital sinus and terminal samples were collected by cardiac puncture into EDTA. Whole blood was incubated with mouse anti-rat CD32 (BD #550271), PE-mouse anti-rat CD45R/B220 (BD #554881), PECy5-mouse anti-rat CD4 (BD #554839), and APC-mouse anti-rat CD8a (eBioscience #17-0084) for 30 minutes on ice. Red blood cells were lysed using BD Pharm Lyse Lysing buffer (#555899) and white blood cells were analyzed with a BD FACSArray. Lymphopenia was expressed as the % of white blood cells that were CD4 or CD8 positive T cells. The overall lymphopenia response over 24 h was estimated by calculating the area under the effect curve (AUEC) using the linear trapezoidal rule.
(§3) The compounds listed in Table 6 were formulated as suspensions in a vehicle consisting of 0.5% carboxymethyl cellulose (Acros Organics) in purified water (pH adjusted to ˜2.2 with hydrochloric acid). The same formulation was used in the rat lymphopenia and toxicology studies described below. The concentration of each compound in suspension was verified to be within ±10% of the target concentration by HPLC-UV.
Prior to the conduct of toxicology studies, the effect of three to five daily doses of each compound on peripheral T-cell counts of female rats was determined (see lymphopenia measurements in rats above). In these lymphopenia studies, blood samples were collected onto EDTA at intervals after the final study dose. The collection times were not identical for each study, however, all studies included a sample collected 24 hours after the final dose. The lymphopenia data was used as a biomarker to select equally pharmacologically active doses for the subsequent toxicology study. […] The high dose in the toxicology study represented a ≧20-fold increment over the low dose.
(§4) The dose producing a 10% increase in lung to body weight ratio was interpolated from a plot of dose versus lung to body weight. The lymphopenia response was measured 24 hours following the final dose of a 3-5 day multiple dose regimen.

[7] = Evaluation of therapeutic index in rats: 5 or 14 day toxicology study, lung to body weight ratio; type: in vivo, Sprague-Dawley rat; details: for Dose Resulting in 10% increase in lung weight: rats, oral, 5 or 14 consecutive days, interpolated from dose versus lung to body weight; for TI 5 days: 5 day toxicology study in rats
Procedure: All studies were conducted in non-fasted male and female Sprague-Dawely rats (Simonsen Laboratories). Rats were housed in an AAALAC accredited facility and the research was approved by the facilities Institutional Animal Care and Use Committee (IACUC). The animals were acclimated to the laboratory for at least 5 days prior to initiation of experiments.
as §3
In the toxicology studies, three male and three female rats per group were assigned to dosing groups using body weight based randomization. A control group in each study received vehicle. All animals were dosed orally by gavage on 5 or 14-consecutive days at a dose volume of 5 mL/kg/day. The animals were observed daily for any manifestations of adverse effect. Twenty-four hours after the final study dose, the rats were anesthetized with isoflurane and a terminal blood sample was taken by intra-cardiac puncture for hematology and clinical chemistry evaluation (IDEXX Laboratories, Sacramento, Calif.). The lungs with trachea were collected, weighed, and then prepared for histology by perfusion with 10% neutral buffered formalin via the trachea. The internally fixed lungs were then preserved in 10% neutral buffered formalin and submitted for histological examination (IDEXX).
The dose of each compound resulting in a 10% increase in the lung to terminal body weight ratio was estimated for each compound by linear interpolation. The therapeutic index was estimated as the ratio of the dose producing 10% lung weight increase to the dose producing 50% T-Cell depletion.
as §4

[8] = S1P1 CRE-bla CHOK1, with Forskolin, read-out: S1P1 agonist value (EC50)
[9] = agonist activity range, S1P1 CRE-bla CHOK1, 2 μM Forskolin, read-out: S1P1 ACTIVITY
[10] = therapeutic index: dose producing 10% lung weight increase / dose producing 50% T-cell depletion

Sequence of S1P1/EDG1 (P21453 whole entry): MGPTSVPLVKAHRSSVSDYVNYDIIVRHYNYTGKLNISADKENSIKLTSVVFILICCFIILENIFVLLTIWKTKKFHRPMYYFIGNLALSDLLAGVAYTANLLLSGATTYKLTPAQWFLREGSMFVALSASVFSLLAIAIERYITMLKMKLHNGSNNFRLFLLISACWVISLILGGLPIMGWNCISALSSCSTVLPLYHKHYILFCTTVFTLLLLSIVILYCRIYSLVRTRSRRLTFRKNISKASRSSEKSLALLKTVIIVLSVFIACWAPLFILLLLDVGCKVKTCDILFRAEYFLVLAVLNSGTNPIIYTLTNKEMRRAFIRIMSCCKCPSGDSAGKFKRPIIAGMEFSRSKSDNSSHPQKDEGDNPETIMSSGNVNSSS

SMILES	EC50 [1, 8]	EC50 [1, 9]	EC50 [2]	EC50 [3]	EC50 [4]	EC50 [5]	Dose Producing 50% lymphopenia [6]	Dose Resulting in 10% increase in lung weight [7]	TI 14 days ([7]; therapeutic index: dose producing 10% lung weight increase / dose producing 50% T-cell depletion, 14 day toxicology study in rats)	TI 5 days [7, 10]
CCOc1ccc(-c2nc(-c3cccc4c3CCC4NCCO)no2)cc1OCC (racemic) [Compound 253, (+/−)-2-((4-(5-(3,4,diethoxyphenyl)-1,2,4-oxadiazol-3-yl)-2,3-dihydro-1H-inden-1-yl)amino)ethanol, reference compound]	2.88 nM	0.5 to 5 nM	4300 nM	136 nM	> 1000 nM	3250 nM				
COCCS(=O)(=O)N[C@@H]1CCc2c(-c3noc(-c4ccc(OC(C)C)c(C#N)c4)n3)cccc21 [Compound 163, (R)-N-(4-(5-(3 cyano-4-isopropoxyphenyl)-1,2,4-oxadiazol-3-yl)-2,3-dihydro-1H-inden-1-yl)-2-methoxyethanesulfonamide]	0.09 nM	0.05 to 0.5 nM	> 10000 nM	50 nM	> 10000 nM	> 10000 nM	0.07 mg/kg	2.1 mg/kg	30	
COCCS(=O)(=O)N[C@H]1CCc2c(-c3noc(-c4ccc(OC(C)C)c(C#N)c4)n3)cccc21 [Compound 164, (S)-N-(4-(5-(3-cyano-4-isopropoxyphenyl)-1,2,4-oxadiazol-3-yl)-2,3-dihydro-1H-inden-1-yl)-2-methoxyethanesulfonamide]	0.36 nM	0.05 to 0.5 nM	> 10000 nM	174 nM	> 10000 nM	> 10000 nM	0.25 mg/kg	5.0 mg/kg		20
CC(C)Oc1ccc(-c2nc(-c3cccc4c3CC[C@H]4NS(=O)(=O)CCO)no2)cc1C#N [Compound 186, (R)-N-(4-(5-(3 cyano-4-isopropoxyphenyl)-1,2,4-oxadiazol-3-yl)-2,3-dihydro-1H-inden-1-yl)-2-hydroxyethanesulfonamide]	0.05 nM	0.05 to 0.5 nM	> 10000 nM	32.3 nM	1570 nM	1210 nM	0.07 mg/kg	1.1 mg/kg		16
CC(C)Oc1ccc(-c2nc(-c3cccc4c3CC[C@@H]4NS(=O)(=O)CCO)no2)cc1C#N [Compound 187, (S)-N-(4-(5-(3-cyano-4-isopropoxyphenyl)-1,2,4-oxadiazol-3-yl)-2,3-dihydro-1H-inden-1-yl)-2-hydroxyethanesulfonamide]	0.1 nM	0.05 to 0.5 nM	> 10000 nM	57.1 nM	> 10000 nM	> 10000 nM	0.50 mg/kg	5.0 mg/kg		10
CC(C)Oc1ccc(-c2nc(-c3cccc4c3CC[C@H]4NC(=O)N3CC(O)C3)no2)cc1C#N [Compound 234, (R)-N-(4-(5-(3 cyano-4-isopropoxyphenyl)-1,2,4-oxadiazol-3-yl)-2,3-dihydro-1H-inden-1-yl)-3-hydroxyazetidine-1-carboxamide]	0.1 nM	0.05 to 0.5 nM	> 10000 nM	76.1 nM	> 10000 nM	739 nM	0.90 mg/kg	21.3 mg/kg		24
CC(C)Oc1ccc(-c2nc(-c3cccc4c3CC[C@@H]4NC(=O)N3CC(O)C3)no2)cc1C#N [Compound 235]	0.1 nM	0.05 to 0.5 nM	> 10000 nM	39.8 nM	> 10000 nM	> 10000 nM	2.00 mg/kg	11.3 mg/kg		6
